One assay relates to Acinetobacter baumannii. In words: In vitro bactericidal activity against Acinetobacter baumannii. The assay is classed as cell-based. Particulars: inoculum 1×10^6 CFU/ml, 60 to 180 minute incubation. On the procedure: (§1) In vitro bactericidal activity: The three peptide compounds BCC01-5RMP (SEQ ID NO:23), BCC002-5RMP (SEQ ID NO:21), and BCC003-5RMP (SEQ ID NO:22) were assayed for in vitro bactericidal activity against Pseudomonas aeruginosa, Escherichia coli, Salmonella typhimurium, and Acinetobacter baumannii. The starting inoculum for all experiments was 1×10^6 colony forming units (CFU)/ml. The CFU remaining at the end of 60 to 180 minute incubation was determined, and the data plotted as a log reduction in CFU/ml.

Assay [1] relates to release of TNF-α from LPS-stimulated RAW264.7 cells. In words: LPS neutralization: TNF-α release from LPS-stimulated RAW264.7 cells. In kind it is cell-based, mouse. The method, then:
(§2) The well-characterized response of RAW264.7 macrophage cells was used to produce tumor necrosis-factor-alpha (TNF-α) in response to LPS to determine whether the peptides could dampen the release of this cytokine. […] Importantly, pre-treatment (3 hours prior to LPS addition) as well as post-treatment of the RAW264.7 cells (3 hours post LPS addition) with peptide dampened the cytokine release. […] The finding that the novel peptides bind and neutralize the effect of Pseudomonas LPS is of critical importance since this ensures that the novel therapeutic peptide compounds described herein will not only kill the bacteria, but will also neutralize the LPS endotoxin released by the bacteria which plays such an important role in the rapid progression of sepsis.
(§3) BCC01-5RMP (SEQ ID NO:23), BCC002-5RMP (SEQ ID NO:21), and BCC003-5RMP (SEQ ID NO:22) were tested for their ability to bind lipopolysaccharide (LPS) using the limulus amebocyte lysate method (LAL). […] There was no statistical difference in their ability to bind LPS using the LAL technique. The ability of the peptides to neutralize LPS was assessed by determining their ability to attenuate the release of tumor necrosis factor-alpha (TNF-α) from LPS-stimulated RAW264.7 cells (a mouse macrophage cell line). […] No significant differences were observed between the three peptides to neutralize LPS as measured by cytokine release. Peptides based on sequence 120-146 (SEQ ID NOS:28-31) also bind and neutralize Pseudomonas LPS.

In another assay the test system is Pseudomonas LPS. In words: LPS binding, Limulus Amebocyte Lysate (LAL) assay. The following applies: LAL method. The method, then:
as §2, §3

The next assay concerns Escherichia coli. In words: In vitro bactericidal activity against Escherichia coli. The following applies: E. coli; inoculum 1×10^6 CFU/ml; 60 to 180 minute incubation. The assay is classed as cell-based. The method, then: as §1
The test system of the next assay is Salmonella typhimurium. The experiment in a line: In vitro bactericidal activity against Salmonella typhimurium. The assay is classed as cell-based. The following applies: inoculum 1×10^6 CFU/ml, 60 to 180 minute incubation. On the procedure: as §1
For another assay, the system named is P. aeruginosa ATCC 27853. The assay is classed as cell-based, Pseudomonas aeruginosa. Particulars: Pseudomonas; inoculum 1×10^6 CFU/ml; 60 to 180 minute incubation. The method, then: as §1
Table 4 further compares the activity of several other compounds, including the “5R” versions of BCC01, i.e., SEQ ID NO:20 (which comprises SEQ ID NO: 7 with five additional arginines), the “5R” version of BCC002 (i.e., SEQ ID NO:18, which comprises SEQ ID NO: 1 with five additional arginines), and the 5RMP versions of BCC01 (SEQ ID NO: 23) and BCC002 (SEQ ID NO: 21). The data generally indicate the superiority of BCC003-5RMP (SEQ ID NO:22) and BCC002-5RMP (SEQ ID NO: 21) and the superiority of the 5R or 5RMP versions of the peptide over the “AEEP only” peptide against P. aeruginosa.

The subject of assay [2] is mouse corneal epithelium abrasion. The experiment in a line: In vivo model of corneal wound healing. The following applies: HB-EGF 250 ng/ml at 0 and 16 hours. The method, then:
(§4) The mouse corneal epithelium was removed using the AlgerBrush II (The Alger Company, Inc., Lago Vista, Tex.), and corneal abrasions were treated at 0 hours and 16 hours with peptide 95-122 (10^−5 M), or were left untreated in 0.9% sodium chloride (saline vehicle) Wound healing was monitored at 0, 16, and 24 hours using fluorescein staining and a camera-equipped inverted microscope. Data are represented as the percentage of wound closure at 16 hours and 24 hours and are expressed as means±SEM. The data are representative of at least 6 mice per group. *P<0.05 by unpaired t-test as compared to vehicle (0.9% sodium chloride) treated controls.
as §4, with “II,” for “II (The Alger Company, Inc., Lago Vista, Tex.),”, “0” for “0 hours”, “120-146WH (10^−8 M or 10^−6” for “95-122 (10^−5”, “vehicle control).” for “vehicle)”, “group. ***P<0.001,” for “group.”
(A) The epithelium of the mouse cornea was removed using the AlgerBrush II, and corneal abrasions were treated at 0 and 16 hours with HB-EGF (250 ng/ml), rCAP37 (250 ng/ml), or vehicle control (normal saline). Wound closure was monitored at 0, 16, 24, and 48 hours using fluorescein staining and a camera-equipped inverted microscope. Data are represented as the percentage of wound closure and are expressed as mean±SEM. The data are representative of at least 6 mice per group. The percentage of wound closure in response to treatment was compared to vehicle-treated controls by unpaired t-test, **P<0.01, *P<0.05. (B) Representative images of mouse corneal wounds are shown at 0, 16, 24, and 48 hours following treatment with vehicle, HB-EGF, and CAP37. Black dotted lines indicate the wound edge.
In vivo model of corneal wound healing: The in vivo model of wound healing was carried out using a disposable biopsy punch (2 mm, Miltex, York, Pa.) to demarcate the mouse cornea and a 0.5 mm burr using the AlgerBrush II (The Alger Company, Inc., Lago Vista, Tex.) to remove the corneal epithelium.
In vivo model of wound healing: Mice were anesthetized using ketamine (100 mg/kg; Bionichepharma, LLC., St. Lake Forrest, Ill.) and xylazine ([…]; Rompun; Bayer Corp., Shawnee Mission, Kans.), and the right cornea was wounded as follows. A disposable biopsy punch (2 mm, Miltex, York, Pa.) was used to demarcate the mouse cornea. The corneal epithelium was carefully removed within the 2 mm demarcated area with a 0.5 mm burr using the AlgerBrush II (The Alger Company, Inc., Lago Vista, Tex.). The corneal abrasions were treated at 0 and 16 hours with HB-EGF (250 ng/ml), rCAP37 (250 ng/ml), or vehicle control (0.9% sodium chloride, pH 5.5, Baxter, Deerfield, Ill.). Corneal abrasions were visualized using sterile fluorescein sodium ophthalmic strips USP (FLUORETS®, Chauvin Laboratory, Aubenas, France) dampened with sterile PBS. […] The areas of the open wound were quantitated using ImageJ software (US National Institutes of Health), and the results were reported as the percentage of wound closure.

Another assay deals with HCEC monolayers. The experiment in a line: In vitro scratch assay of HCEC monolayers. The following applies: HB-EGF 250 ng/ml. In kind it is cell-based, human. On the procedure:
(A) HCECs were grown to confluency and scratched using a 10 μl pipette tip. Scratched HCEC monolayers were treated with HB-EGF (250 ng/ml) or rCAP37 (25-2000 ng/ml), or were left untreated in basal Keratinocyte Serum Free Medium (KSFM). Wound closure was monitored at 0, 18, 24, and 48 hours utilizing a camera-equipped inverted microscope. The histogram represents data acquired at 48 hours, and the values are the mean±SEM of the percentage of wound closure. The data are representative of at least 4 independent experiments. The percentage of wound closure in treated monolayers was compared to untreated controls by one-way analysis of variance (ANOVA) followed by Dunnett's multiple comparison test, **P<0.01, *P<0.05. (B) Representative images of scratched monolayers treated with buffer control, HB-EGF, and rCAP37 (at 25, 100, and 250 ng/ml) are shown for each time point. Images were taken at 20× objective.
In vitro model of wound healing: An in vitro scratch assay was used in order to determine the ability of rCAP37 to facilitate corneal wound healing. Human corneal epithelial cells were cultured as described above until they reached a confluent monolayer. Each monolayer was scratched using a 10 μl pipette tip to create two perpendicular lines. Monolayers were treated with heparin binding-epidermal growth factor (HB-EGF, 250 ng/ml; Becton Dickinson), rCAP37 (25-2000 ng/ml), or basal KSFM (Gibco). Wound closure was monitored at 0, 18, 24, and 48 hours utilizing a camera-equipped inverted microscope (TE2000-E; Nikon, Melville, N.Y.). Time-lapse images of in vitro wound closure were obtained using a camera-equipped inverted microscope (TE2000-E; Nikon) from […]. HCEC monolayers were treated with HB-EGF, rCAP37, and basal KSFM as described above. The width of each scratch was quantitated using ImageJ software (US National Institutes of Health, Bethesda, Md.). Results are presented as the percentage of wound closure.

Assay [3] has as its system human corneal epithelial cell (HCEC). In words: HCEC chemotaxis, modified Boyden chemotaxis chamber. In kind it is cell-based. The following applies: HB-EGF 50 ng/ml; positive control. On the procedure: The effect of buffer control (0.1% BSA in Gey's buffer), heparin binding-epidermal growth factor (HB-EGF, 50 ng/ml), recombinant CAP37 (rCAP37, 250 ng/ml), 120-146QH (10^−12M, 10^−10 M, 10^−8 M, 10^−6M, and 10^−4M,) and 120-146QR (10^−10M, 10^−8M, 10^−6M, and 10^−4M) on HCEC chemotaxis was determined by the modified Boyden chemotaxis chamber method. HCEC chemotaxis was measured in response to HB-EGF, rCAP37, and peptides 120-146QH (SEQ ID NO:29) and 120-146QR (SEQ ID NO:28) after incubation for 3 hours at 37° C. Chemotaxis is expressed as a percent migration. The buffer control (no chemoattractant) is arbitrarily assigned the value of 100% migration. Data are expressed as means±SEM and are calculated from 6 observations for each test point. **P<0.01 by Wilcoxon signed-rank test as compared to controls.
Chemotaxis: Chemotaxis assays were performed using the modified Boyden chemotaxis chamber assay. Peptide 120-146QH was used at 10^−4 M, 10^−6 M, 10^−8 M, 10^−10 M, and 10^−12 M, and peptide 120-146QR was used at 10^−4 M, 10^−6 M, 10^−8M, and 10^−10M.

Square brackets hold non-standard residues; d marks the D form. Peptide text beside a SMILES is read from it. PEG2 = NCCOCCOCCC(=O)O

Take `CC[C@H](C)[C@H](NC(=O)[C@H](CC(C)C)NC(=O)[C@H](C)NC(=O)CNC(=O)CNC(=O)[C@H](CS)NC(=O)[C@H](Cc1ccccc1)NC(=O)[C@H](Cc1c[nH]cn1)NC(=O)[C@H](CCCNC(=N)N)NC(=O)CNC(=O)[C@H](CCC(N)=O)NC(=O)[C@H](CC(N)=O)NC(=O)[C@H](CCCNC(=N)N)NC(=O)[C@H](CCCNC(=N)N)NC(=O)[C@H](CCCNC(=N)N)NC(=O)[C@H](CCCNC(=N)N)NC(=O)CCOCCOCCNC(=O)CCOCCOCCN)C(=O)N[C@@H](Cc1c[nH]cn1)C(=O)N[C@@H](C)C(=O)N[C@@H](CCCNC(=N)N)C(=O)N[C@@H](Cc1ccccc1)C(=O)N[C@H](C(=O)N[C@@H](CCSC)C(=O)N[C@H](C(=O)N[C@@H](C)C(=O)N[C@@H](C)C(=O)N[C@@H](CO)C(=O)N[C@@H](CS)C(=O)N[C@@H](Cc1ccccc1)C(=O)N[C@@H](CCC(N)=O)C(=O)N[C@@H](CCCNC(=N)N)C(=O)O)[C@@H](C)O)C(C)C` [BCC01-5RMP] (H-[PEG2][PEG2]RRRRNQGRHFCGGALIHARFVMTAASCFQR-OH; C-terminus assumed): the “in vitro bactericidal activity, in words” value with Acinetobacter baumannii is reported as “most active”; in the assay with Escherichia coli it was “strong, but lesser activity”; in the assay with Salmonella typhimurium, “strong, but lesser activity”; in the assay on P. aeruginosa ATCC 27853, “most active”. Moreover, the “neutralization of LPS: attenuation of TNF-α release” value in [1] is “attenuate the release of TNF-α”. For the same molecule, the “binding of Pseudomonas LPS” value in the assay with Pseudomonas LPS is “bound Pseudomonas LPS”.

B1: HB-EGF: heparin binding-epidermal growth factor, used as the positive control (protein, UniProt Q99075 63-148, looked up)
Heparin-binding EGF-like …: DLQEADLDLLRVTLSSKPQALATPNKEEHGKRKKKGKGLGKKRDPCLRKYKDFCIHGECKYVKELRAPSCICHPGYHGERCHGLSL
Take B1: the “corneal wound closure vs buffer control, in words” value in assay [2] was “significantly higher compared to the buffer control”. Also, the “time to complete closure of scratch wounds” value in the assay with HCEC monolayers (CAP37 250 ng/ml) is no more than 24 h. In the assay with HCEC monolayers (positive control), this molecule gave a percentage wound closure of roughly 88%. The “migration of HCECs vs buffer control, in words” value in assay [3] is “significant increase in migration”.

Source of the values: patent publication US11884710B2, “Peptide compounds and methods of use in wound healing” (priority 2013, dated 2024).
